Laboratory results taken from US10577337B2, “Compositions and methods of treatment with prodrugs of tizoxanide, an analogue or salt thereof” (Romark Laboratories, L.C., priority 2014, dated 2020).

How the values were obtained:
[1] = Aqueous solubility; assay type: physicochemical
[2] = humans, cited from earlier work

| aqueous solubility, descriptive term [1] | solubility ([1]; aqueous) | Structure (SMILES) | effect of food on absorption ([2]; administered with food) | half-life of tizoxanide in plasma ([2]; after oral nitazoxanide or nitazoxanide plus tizoxanide) |
| --- | --- | --- | --- | --- |
| practically insoluble | < 100 µg/mL | CC(=O)Oc1ccccc1C(=O)Nc1ncc([N+](=O)[O-])s1 [nitazoxanide, 2-(acetolyloxy)-N-(5-nitro-2-thiazolyl)benzamide] | approximately doubled with food |  |
|  |  | O=C(Nc1ncc([N+](=O)[O-])s1)c1ccccc1O [tizoxanide] |  | approximately 1.5 hours |
